The text below walks through data of PMC3080343, “Small lytic peptides escape the inhibitory effect of heparan sulfate on the surface of cancer cells” (BMC Cancer, 2011).

Molecules are shown by their SMILES. Where two headings read alike, the source gives them in different places. Where a SMILES comes first, the peptide text is derived from it. [ ]: non-standard residue; d: D form. Dip = N[C@H](C(=O)O)C(c1ccccc1)c1ccccc1; Orn = NCCC[C@H](N)C(=O)O

In one data set the test system is pgsA-745. The format is cell-based, Chinese hamster. Conditions: for IC50: 2 h. The method, then: (§1) The colorimetric MTT viability assay was used to investigate the cytotoxic effect of the peptides. The HT-29, MT-1, Kelly, HUVEC and MRC-5 cells were seeded at a concentration of 2 × 10^5 cells/ml, 1.5 × 10^5 cells/ml, 2 × 10^5 cells/ml, 1 × 10^5 cells/ml and 1 × 10^5 cells/ml in a volume of 0.1 ml in 96-well plates, respectively. CHO-K1 and pgsA-745 cells were seeded at a concentration of 1 × 10^5 cells/ml. The cells were allowed to adhere overnight in complete medium. Before adding different concentrations of the peptides (10-500 μg/ml) to the cells, the culture medium was removed and the cells were washed twice in serum-free culture medium. The non-adherent lymphoma cell lines were seeded at a density of 4 × 10^5 cells/ml using serum-free medium. After incubating the cells with peptides for 30 minutes at 37°C, 0.5 mg MTT-solution was added to each well and the incubation was continued for 2 hours. A volume of 70 μl or 130 μl per well was removed from the non-adherent and adherent cells, respectively. In order to dissolve the formazan crystals, 100 μl of 0.04 M HCl in isopropanol was added and the plates were shaken for 1 hour on a Thermolyne Roto Mix (Dubuque, IA) at room temperature. The optical density was measured on a microplate reader (VERSAmax™ Molecular Devices, CA). Cells treated with 1% Triton X-100 in serum-free medium was used as positive control for 100% cell death, whereas cells in serum free medium were used as negative control. Cell survival was determined from the ΔA590 nm relative to the negative control (100% living cells) and expressed as 50% inhibitory concentration (IC50).

For another data set, the system named is CHO-K1. The format is cell-based, Chinese hamster. The following applies: 2 h. The method, then:
as §1

Data set [1] deals with carcinoma cell lines HT-29 and MT-1. The experiment in a line: MTT viability assay, carcinoma cell lines HT-29 and MT-1. The data set is classed as cell-based. The following applies: selectivity versus HUVEC and MRC-5. As to the method:
as §1, with “Cells treated with 1% Triton X-100 in serum-free medium was used as positive control for 100% cell death, whereas cells in serum free medium were used as negative control. Cell survival was determined from the ΔA590 nm relative to the negative control (100% living cells) and expressed as 50% inhibitory concentration (IC50).” left out
On the technique in general: Tetrazolium dyes change colour on reduction, which living cells bring about.

Another data set relates to CHO-K1 cells. The data set is classed as cell-based, Chinese hamster. As to the method:
as §1
In order to investigate whether soluble CS or HS would interfere with the cytotoxic activity, the peptides were added to cultures of CHO-K1 cells together with exogenous CS and HS. […] The cytotoxic activity of LTX-318 was not inhibited in the presence of soluble CS or HS (Figure 5c).

Another data set has as its system HUVEC. The data set is classed as cell-based, human. Conditions: 2 h. The method, then:
as §1

The subject of another data set is tumor. Further details: method as in PMID 20422410. Conditions: cited from earlier work.
Data set [2] is described as follows: MTT viability assay, MRC-5 fibroblast-like cells. The data set is classed as cell-based. Conditions: human. As to the method:
as §1

Data set [3] is described as follows: Affinity chromatography on CS-Sepharose. The format is binding. Conditions: NaCl needed to elute peptide from CS-Sepharose; mean of four experiments. As to the method: (§2) Two different Sepharose affinity columns were prepared, using HS and CS as ligands. The ligands were mixed with swollen CNBr-activated Sepharose 4B. Non-reactive groups were blocked with 0.1 M Tris-HCl, pH 8.0 and the gel was washed before packing. The peptides were dissolved in 5 mM phosphate-buffer, pH 7.4 at a concentration of 0.5 mg/ml, and 50 μl samples were applied. A gradient of NaCl was used to elute the different peptides from the columns using a GradiFrac from Amersham Pharmacia Biotech (Uppsala, Sweden) at a flow rate of 1.0 ml/min. The peptides were detected using a monitor UV-1 from Amershan Pharmacia Biotech (Uppsala, Sweden).

The subject of another data set is Ramos. The format is cell-based. Conditions: 2 h. The method, then:
as §1

Another data set relates to Kelly. The data set is classed as cell-based. Conditions: for IC50: 2 h. The method, then:
as §1

The test system of another data set is Sudhl-4. The data set is classed as cell-based. The following applies: 2 h. As to the method: as §1
The subject of another data set is KMM-1. The data set is classed as cell-based. The following applies: 2 h. As to the method: as §1
A further data set deals with KMS-5. The format is cell-based. Conditions: 2 h. As to the method: as §1
The next data set has as its system MT-1. The format is cell-based. The following applies: 2 h. As to the method: as §1
The test system of a further data set is HT-29. The data set is classed as cell-based. Conditions: 2 h. The method, then:
as §1

In a further data set the test system is U-266. The format is cell-based. Conditions: 2 h. The method, then:
as §1

The next data set has as its system lymphoma cells. The format is cell-based. The following applies: 2 h. As to the method: as §1
The subject of data set [4] is human red blood cells (RBC). The data set is classed as cell-based. The following applies: red cells of human, 1 h. As to the method:
The hemolytic activity of the peptides was determined using freshly isolated human red blood cells (RBC) as previously described. Briefly, venous blood was collected, transferred to a tube containing heparin (10 U/ml) and centrifuged at 1500 rpm for 10 minutes in order to isolate the red blood cells. The red blood cells were washed three times with PBS (35 mM phosphate buffer with 150 mM NaCl, pH 7.4) by centrifugation at 1500 rpm for 10 minutes, and adjusted to 10% hematocrit with PBS. Peptide solutions were added to yield a final concentration range of the peptide from 1000 μg/ml to 1 μg/ml and a red blood cell concentration of 1%. The resulting suspension was incubated with agitation for 1 hour at 37°C. After incubation the suspension was centrifuged at 4000 rpm for 5 minutes, and the released hemoglobin were monitored by measuring the absorbance of the supernatant at 405 nm on a microplate reader (VERSAmax™ Molecular Devices, CA). PBS and 1% Triton X-100 were used as negative and positive controls, respectively. Peptide concentrations corresponding to 50% hemolysis (EC50) were determined from dose-response curves.

The nature of data set [5]: Affinity chromatography on HS-Sepharose. Conditions: NaCl needed to elute peptide from HS-Sepharose; mean of four experiments. The format is binding. As to the method:
as §2

The next data set concerns MRC-5. The data set is described as follows: MTT viability assay, MRC-5 fibroblast-like cells. The data set is classed as cell-based. Conditions: 2 h. The method, then:
as §1

In data set [6] the test system is human red blood cells (RBC). More on the design: method as in Eliassen et al. [69]. The following applies: hemolysis; ref Eliassen et al. [69]; cited from earlier work.

In general, IC50 refers to the point on the concentration scale where inhibition reaches its midpoint. As to `NCCCC[C@H](NC(=O)[C@H](Cc1c[nH]c2ccccc12)NC(=O)[C@H](CCCCN)NC(=O)[C@H](CCCCN)NC(=O)[C@@H](NC(=O)[C@H](Cc1c[nH]c2ccccc12)NC(=O)[C@H](CCCCN)NC(=O)[C@H](CCCCN)NC(=O)[C@@H](N)Cc1c[nH]c2ccccc12)C(c1ccccc1)c1ccccc1)C(N)=O` [LTX-302, WKKWDipKKWK-NH2] (H-WKKW[Dip]KKWK-NH2; N-terminus assumed), the “Ratio (IC50) pgsA-745/CHO-K1” value in the data set with pgsA-745 turned out to be 1.28. Besides, the IC50 with pgsA-745 was found to be 54 ± 2 µM; in the data set on CHO-K1, 42 ± 7 µM; in the data set with HUVEC it was 123 ± 9 µM; with Ramos, 30 ± 2 µM; with Kelly, 28 µM; in the data set with Sudhl-4 it was 46 ± 6 µM. Further, the IC50 with KMM-1 is 40 ± 6 µM; with KMS-5, 31 µM; with MT-1, 73 ± 2 µM; with HT-29 it was 75 ± 5 µM; in the data set on U-266, 36 ± 6 µM; in the data set on lymphoma cells, 31 to 46 µM. The compound also displayed an IC50 in [4] of more than 695 µM. In addition, the “fold higher activity against carcinoma cell lines in comparison to endothelial and fibroblast cells” value in data set [1] was ~ 2 fold. For the same compound, in the data set on CHO-K1 cells, the “inhibitory effect of soluble CS and HS on cytotoxic activity” value is given as “only a negligible inhibitory effect”. The “inhibitory effect of soluble HS on cytotoxic activity compared to CS” value in the data set with CHO-K1 cells was “much higher inhibitory effect”. For the same compound, the “tumor response after intratumoral injection” value in the data set on tumor is reported as “complete regression of the tumor”. This compound also came in with an IC50 at 30 min in [2] of 126 ± 11 µM. Besides, the “Elution concentration from CS” value in [3] worked out at 187 ± 13 mM NaCl. Also, the “fold higher activity against neuroblastoma cell line in comparison to endothelial and fibroblast cells” value in the data set on Kelly (selectivity versus HUVEC and MRC-5) is ~ 4.5 fold. Also, the “Elution concentration from HS” value in data set [5] was 330 ± 9 mM NaCl.

In the case of `NCCCC[C@H](NC(=O)[C@@H](NC(=O)[C@H](Cc1c[nH]c2ccccc12)NC(=O)[C@H](CCCCN)NC(=O)[C@H](CCCCN)NC(=O)[C@H](Cc1c[nH]c2ccccc12)NC(=O)[C@H](Cc1c[nH]c2ccccc12)NC(=O)[C@H](CCCCN)NC(=O)[C@@H](N)CCCCN)C(c1ccccc1)c1ccccc1)C(N)=O` [LTX-315, KKWWKKWDipK-NH2] (H-KKWWKKW[Dip]K-NH2), the half-inhibitory concentration (IC50) was 22 ± 3 µM in the data set on pgsA-745; 22 ± 5 µM in the data set with CHO-K1; 28 ± 1 µM with HUVEC; 10 ± 1.7 µM in the data set with Ramos; 14 ± 1 µM with Kelly; 23 ± 2 µM with Sudhl-4. Further, the 50% inhibitory concentration (IC50) with KMM-1 is 17 ± 2 µM; in the data set on KMS-5 it was 10 ± 1.5 µM; with MT-1, 31 ± 3 µM; with HT-29 it was 38 ± 3 µM; in the data set on U-266, 13 ± 1.5 µM; with lymphoma cells, 10 to 23 µM. Further, in [4], the IC50 was more than 695 µM. For the same compound, the “inhibitory effect of soluble CS and HS on cytotoxic activity” value in the data set with CHO-K1 cells is “only a negligible inhibitory effect”. Further, in the data set on CHO-K1 cells, the “inhibitory effect of soluble HS on cytotoxic activity compared to CS” value is recorded as “much higher inhibitory effect”. This compound displayed a 50% inhibitory concentration (IC50) at 30 min in data set [2] of 41 ± 3 µM. Besides, the “EC50 (50% hemolysis)” value in data set [4] was more than 1000 µg/mL.

For the compound `NCCC[C@H](NC(=O)[C@H](Cc1c[nH]c2ccccc12)NC(=O)[C@H](Cc1c[nH]c2ccccc12)NC(=O)[C@H](CCCN)NC(=O)[C@H](CCCN)NC(=O)[C@@H](NC(=O)[C@H](Cc1c[nH]c2ccccc12)NC(=O)[C@H](CCCN)NC(=O)[C@@H](N)CCCN)C(c1ccccc1)c1ccccc1)C(N)=O` [LTX-318, OOWDipOOWWO-NH2] (H-[Orn][Orn]W[Dip][Orn][Orn]WW[Orn]-NH2), the IC50 with pgsA-745 is 176 ± 3 µM; with CHO-K1, 145 ± 6 µM; in the data set with HUVEC it was more than 347 µM; in the data set on Ramos, 82 ± 11 µM; in the data set with Kelly, 78 ± 7 µM; in the data set on Sudhl-4, 110 ± 5 µM. The IC50 is 111 ± 1 µM with KMM-1; 73 ± 5 µM in the data set with KMS-5; 216 ± 36 µM in the data set with MT-1; 248 ± 5 µM with HT-29; 106 ± 17 µM in the data set with U-266; 73 to 106 µM in the data set on lymphoma cells. In data set [4], the half-maximal inhibitory concentration (IC50) is more than 695 µM. In the data set on CHO-K1 cells, the “cytotoxic activity in the presence of soluble CS or HS” value is “not inhibited”. Further, the “IC50 against endothelial cells (no IC50 value at the highest concentration tested)” value in the data set with HUVEC was more than 500 µg/mL. In data set [2], this compound gave a concentration for half-maximal inhibition (IC50) at 30 min of more than 347 µM. For the same compound, the “IC50 against fibroblast cells (no IC50 value at the highest concentration tested)” value in the data set on MRC-5 was more than 500 µg/mL.

On to `CC[C@H](C)[C@@H]1NC(=O)[C@H](CO)NC(=O)[C@@H]2CCCN2C(=O)[C@H](C)NC(=O)CNC(=O)[C@H](CC(C)C)NC(=O)[C@H](CCCCN)NC(=O)[C@H](CCCCN)NC(=O)[C@H](CCSC)NC(=O)[C@H](CCCNC(=N)N)NC(=O)[C@H](Cc2c[nH]c3ccccc23)NC(=O)[C@H](CCC(N)=O)NC(=O)[C@H](Cc2c[nH]c3ccccc23)NC(=O)[C@H](CCCNC(=N)N)NC(=O)[C@H](CCCNC(=N)N)NC(=O)[C@@H](NC(=O)[C@H](CCCCN)NC(=O)[C@@H](N)Cc2ccccc2)CSSC[C@@H](C(=O)N[C@H](C(=O)N[C@@H](CCCNC(=N)N)C(=O)N[C@@H](CCCNC(=N)N)C(=O)N[C@@H](C)C(=O)N[C@@H](Cc2ccccc2)C(=O)O)C(C)C)NC(=O)[C@H]([C@@H](C)O)NC1=O` [LfcinB, bovine lactoferricin, reference compound], for which the IC50 at 30 min in data set [2] (MTT, 30 min incubation, serum-free, read-out: MRC-5 IC50) is more than 160 µM. In addition, the “Elution concentration from CS” value in data set [3] came to 130 ± 9 mM NaCl. In data set [6], the IC50 is more than 500 µM. The “Elution concentration from HS” value in [5] is 417 ± 4 mM NaCl.
